Experimental data reported in publication PMC9821961, “Ring-Modified Histidine-Containing Cationic Short Peptides Exhibit Anticryptococcal Activity by Cellular Disruption” (Molecules, 2022).
≈ marks a conversion by molar mass, not a printed value.

Tests used:
C. albicans = test: microbe, parasite or virus in culture; type: cell-based, Candida albicans; details: 48 h
In short: (§1)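 Growth inhibition was measured by broth microdilution. MIC and IC50 were calculated from optical density at 600 nm after 48 h at 30 °C for Candida and Cryptococcus (10^3 CFU/mL, RPMI 1640 or YPED) and after 24 h at 37 °C for the Gram-positive bacteria (10^5 CFU/mL, Mueller Hinton).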

C. glabrata = test: microbe, parasite or virus in culture; type: cell-based, Candida glabrata; details: 48 h
In short: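 Broth microdilution per CLSI was run on peptides serially diluted two-fold from DMSO stocks. Fungi (C. neoformans, C. glabrata) were tested at 10^3 CFU/mL in RPMI 1640/YPED for 48 h at 30 °C, and bacteria (S. aureus, E. faecalis) at 10^5 CFU/mL in Mueller Hinton for 24 h at 37 °C. IC50 and MIC came from OD600, with MTT staining used to visualise growth.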

C. krusei = test: microbe, parasite or virus in culture; type: cell-based, Candida krusei; details: 48 h
In short: as §1

S. pyogens = test: microbe, parasite or virus in culture; type: cell-based, Streptococcus pyogenes; details: 48 h
E. coli = test: microbe, parasite or virus in culture; type: cell-based, Escherichia coli; details: 48 h
Text: Microbial strains: Microbial strains were procured from National Culture Collection of Pathogenic Fungi (NCCPF) at the Postgraduate Institute of Medical Education & Research (PGIMER), Chandigarh and Microbial Type Culture Collection and Gene bank (MTCC) at the Institute of Microbial Technology (IMTECH), Chandigarh, India. Peptides were screened against five different strains of fungi: viz. Candida albicans (NCCPF400034), Candida glabrata (MTCC 3019), Candida parapsilosis (NCCPF 440002), Candida krusei (NCCPF 440002) and Cryptococcus neoformans (NCCPF250316), and five strains of bacteria: viz. Escherichia coli (MTCC 2961), Staphylococcus aureus (MTCC 3160), Enterococcus faecalis (MTCC 439), Streptococcus pyogenes (MTCC 442) and Pseudomonas aeruginosa (MTCC 3542).
Growth media: Antifungal susceptibility testing was carried out using standard broth microdilution assays as per the Clinical and Laboratory Standards Institute (CLSI) guidelines for fungi. RPMI 1640 (Sigma), yeast extract, peptone and dextrose (YPED, Himedia) were used as the incubation broths. The cells were diluted to a cell density of 10^3 colony forming unit (CFU/mL) and incubated at 30 °C for 48 h. Furthermore, Muller Hinton (Himedia) media was utilized for bacterial strains and antibacterial activity was evaluated per CLSI guidelines for bacteria. […] Amphotericin B (Himedia, India) and rifampicin (Himedia, India) were used as standard drugs for the evaluation of activity against all the fungal and bacterial strains, respectively.
The stock solutions of peptides (2 mg/mL) were prepared in DMSO. Specific amounts of peptide from stock solution were added to a 96-well microtiter plate containing 100 μL of growth media and then serially diluted two-fold. A further 100 μL of growth media containing microbial cells were added to each well and incubated at 30–37 °C for 24–48 h. The optical density (OD) was measured at 600 nm using a BioStack Ready (BioTek Instruments, Winooski, VT, USA) microplate reader to analyze microbial growth inhibition, and IC50 and MIC values were calculated. To visualize the growth and inhibition pattern, a solution of 3-(4,5-dimethylthiazol-2-yl)-2,5-diphenyltetrazolium bromide (MTT) in water was added to the plate and incubated for 2–3 h. MTT reacts with the mitochondrial dehydrogenases, which are present only in a viable cell, to give blue colored formazan crystals. Therefore, a darker color indicates a high number of viable cells; however, non-viable cells appear pale or colorless.

C. neoformans cells = test: Cell death pattern analysis by flow cytometry (Annexin V-FITC/PI); type: cell-based, Cryptococcus neoformans; details: treated at MIC, 12 h; PI + annexin V-FITC
Text: Apoptosis includes a series of events occurring inside the cell, causing changes in plasma membrane, genetic material and various internal proteins, therefore leading to programmed cell death. One of the early markers of apoptosis is the translocation of a membrane phospholipid, phosphatidylserine, from the inner to the outer leaflet of the plasma membrane without altering the integrity of the plasma membrane. Annexin V-FITC interacts with the externalized phosphatidylserine, therefore showing the cell change towards apoptosis which can be analyzed using flow cytometry. The four quadrants in flow cytometry indicate different stages of the cells. The percentage depicts the population of the cells in a specific stage. Q1 corresponds to the percentage of cells undergoing necrosis, Q2 depicts the early apoptotic stage of the cells whereas Q4 corresponds to the cells in late-stage apoptosis and Q3 depicts the cells in the native state.
The treated cells along with a batch of untreated cells were centrifuged at 2000× g for 10 min at 4 °C and suspended in cold phosphate-buffered saline (PBS), followed by 2–3 washings with PBS. The harvested treated and untreated cells were then incubated with zymolyase for 1 h at ambient temperature to obtain cell protoplasm. The staining of obtained protoplasm was done using an Annexin V-FITC detection kit (Sigma-Aldrich, Saint Louis, DE, USA). The protoplasm of untreated cells was divided into 4 tubes (2 mL) and into 3 tubes a different staining agent was added while one was kept unstained. […] Furthermore, two more samples were prepared where protoplasm of 10d- and 10o-treated cells were stained with both PI and annexin V-FITC. All 6 samples were then analyzed by using an FACS Calibur (Becton-Dickinson, San Jose, CA, USA) at excitation of 488 nm (for FITC) and 560 nm (for PI) band filter. Approximately 10,000 cells were used for counting.

[1] = test system: C. neoformans (ATCC350) cells; test: CLSM PI uptake assay; type: cell-based, Cryptococcus neoformans; details: at MIC, 12 h, then PI
Description: After incubation, treated and untreated cells were centrifuged at 2000× g for 10 min at 4 °C and suspended in cold PBS and followed by 2–3 washings with PBS. The cells were then incubated with PI (1.49 μM) for 1 h at room temperature with constant shaking (150× g rpm), and later harvested by centrifugation and suspended in PBS. Then, the cells were examined using confocal microscopy (Olympus Fluoview™ FV1000 SPD; Olympus, Tokyo, Japan) with a wavelength of >560 nm for PI. C. neoformans cells without treatment of active peptides served as a control.

in vitro = details: human, HeLa cells
Description: The cells (50,000 cells/well) were seeded to the wells of the plate in Dulbecco’s Modified Eagle Medium (DMEM) supplemented with 10% fetal bovine serum at 37 °C overnight and incubated for 24 h to achieve confluency. Peptides at different concentrations of 50, 25, 12.5, 6.25, 3.12, 1.56 and 0.78 μg/mL were added to the cells in separate wells and incubated at 37 °C for 18 h. A further 20 µL MTT solution (5 mg/mL stock conc. in PBS) was added and the plate was incubated for another 3–4 h. To detect the viable cells that react with MTT to make formazan crystals, 120 μL of supernatant was removed and 100 μL DMSO was added to dissolve the crystals. Untreated cells and DMSO (10%) were used as negative and positive controls, respectively [37]. The percent viability of cells was calculated using equation:(2) % Cell viability=Av. Absorbance of treated cells/Av. Absorbance of control cells×100

SMILES	IC50 (C. albicans) [µg/mL]	MIC (C. albicans) [µg/mL]	IC50 (C. glabrata) [µg/mL]	MIC (C. glabrata) [µg/mL]	IC50 (C. krusei) [µg/mL]	MIC (C. krusei) [µg/mL]	IC50 (S. pyogens) [µg/mL]	MIC (S. pyogens) [µg/mL]	IC50 (E. coli) [µg/mL]	MIC (E. coli) [µg/mL]	Cell population in Q1 (necrosis) (C. neoformans cells) [%]	Cell population in Q2 (early apoptotic stage) (C. neoformans cells) [%]	Cell population in Q3 (native state) (C. neoformans cells) [%]	Cell population in Q4 (late-stage apoptosis) (C. neoformans cells) [%]	PI fluorescence of treated cells (CLSM) [1]	CC50 at 18 h (in vitro) [µg/mL]
COC(=O)[C@H](Cc1ncn(Cc2cc(C(C)(C)C)cc(C(C)(C)C)c2)c1I)NC(=O)[C@@H](N)Cc1c[nH]c2ccccc12 [10d, Trp-His[1-(3,5-di-tert-butylbenzyl)-5-iodo]-OMe]	>35.2	>64.0	>35.2	>64.0	>35.2	>64.0	>35.2	>64.0	17.6 (≈ 25.7 µM)	32.0 (≈ 46.8 µM)	1.7	1.3	44.8	52.2	prominent red fluorescence	> 100
COC(=O)[C@H](Cc1ncn(Cc2ccccc2I)c1I)NC(=O)[C@@H](N)Cc1c[nH]c2ccccc12 [10o, Trp-His[1-(2-iodobenzyl)-5-iodo]-OMe]	>35.2	>64.0	>35.2	>64.0	>35.2	>64.0	>35.2	>64.0	>35.2	>64.0	2	1	48.9	48.1	prominent red fluorescence	> 100
